Patent US20080214658A1, “Composition Comprising Isoorientin for Suppressing Histamine” (UNIGEN, INC., priority 2005, published 2008)

Test system: guinea pig lung mast cells
Experiment: Histamine release from passively sensitized (anti-OVA antibody) lung mast cells activated by OVA
Assay type: cell-based
Details: for Histamine (%) (amount of histamine released as percentage of the total histamine content) / inhibition % of histamine release: 4 × 10^5 mast cells, added 5 min before 1.0 μg/ml OVA challenge; for inhibition % of histamine release: vs OVA alone
Procedure: In each enzyme treatment, the lung tissues were filtered with nylon mesh and metal mesh (100 μm), and centrifuged (called as monodispersed mast cells). Pellets were suspended in 16 ml of buffer (TG buffer) containing Ca^2+, Mg^2+-free, and 0.1% gelatin, loaded to rough Percoll ([…] density), and centrifuged at 1,400 rpm for 25 minutes to give pellets. The cells were suspended again in 8 ml of TG buffer, loaded to discontinuous Percoll ([…] density), and centrifuged again at 1400 rpm for 25 minutes to afford various kinds of cell layers. Among them, mast cells were mainly present in 3rd or 4th layer, and so cells obtained from these layers were washed with TGCM buffer twice. […] Mast cells (4×10^5 cells) were treated with guinea pig IgG1 antibody (anti-OVA 1 ml/10^6 cells), reacted at 37° C. for 45 minutes, and then washed with TGCM buffer to remove anti-OVA antibody which was not bound to mast cells membrane. The cells were suspended in 1 ml of TGCM buffer, and treated with drug (testing substance) at each concentration for 5 minutes. The suspension was […] with 1.0 μg/ml OVA (ovalbumin), reacted for 10 minutes, cooled at ice, and centrifuged. After the centrifuge, histamine in supernatant was measured. […] The amount of histamine contained in each sample was calculated as percentage against the amount of histamine contained in total cells used, as follows. [formula]

With `O=c1cc(-c2ccc(O)c(O)c2)oc2cc(O)c([C@@H]3O[C@H](CO)[C@@H](O)[C@H](O)[C@H]3O)c(O)c12` [Isoorientin, isoorientin] the IC50 (Cavia porcellus, Mast cell, guinea pig lung mast cells, anti-OVA sensitized, OVA challenge, read-out: IC50 value, inhibition of histamine release in mast cells) was 30 µg/mL, the “Histamine (%) (amount of histamine released as percentage of the total histamine content)” value (sample 1.25 μg) was 27.9 ± 2.62% and the “inhibition % of histamine release” value (sample 1.25 μg) was 14%. For the same compound, the “Histamine (%) (amount of histamine released as percentage of the total histamine content)” value (sample 2.5 μg) was 25.6 ± 1.49%, the “inhibition % of histamine release” value (sample 2.5 μg) was 21.3% and the “Histamine (%) (amount of histamine released as percentage of the total histamine content)” value (sample 5 μg) was 21.9 ± 2.01%. For the same compound, the “inhibition % of histamine release” value (sample 5 μg) was 32.6%, the “Histamine (%) (amount of histamine released as percentage of the total histamine content)” value (sample 10 μg) was 17.2 ± 1.07% and the “inhibition % of histamine release” value (sample 10 μg) was 47.2%.
